Results: PubChem BioAssay (NCI)
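Results reflect a 48-hour exposure of cells in 96-well plates to compound at five concentrations. TGI: concentration producing complete growth inhibition.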

How the values were obtained:
Assay in all cases: NCI tumour cell line growth inhibition, 48 h
KM20L2 colon = test system: KM20L2 colon
RXF-631 renal = test system: RXF-631 renal
SN12K1 renal = test system: SN12K1 renal
P388/ADR leukemia = test system: P388/ADR leukemia
XF 498 CNS = test system: XF 498 CNS
P388 leukemia = test system: P388 leukemia

Row | SMILES | TGI (KM20L2 colon) [µM] | TGI (RXF-631 renal) [µM] | TGI (SN12K1 renal) [µM] | TGI (P388/ADR leukemia) [µM] | TGI (XF 498 CNS) [µM] | TGI (P388 leukemia) [µM]
1 | CC(C)c1cccc(C(C)C)c1NC(=O)C(=O)Cc1nc2ccc([N+](=O)[O-])cc2[nH]c1=O | > 100 | > 100 | – | – | – | –
2 | COC(=O)C1CC2C=CC=CC(=O)C2(C)C1 (centres undefined) | > 100 | – | – | – | – | –
3 | CCNC(=O)C(C)C1CCC2(C)C=CC(=O)C(C)=C2C1O (centres undefined) | > 100 | – | > 100 | > 100 | > 100 | > 100
4 | OCC#CCNCl | > 100 | – | > 100 | > 100 | > 95.2 | > 100
5 | C/C(=C/C(=O)Nc1ccccc1)Nc1onc(C)c1C | > 100 | – | > 100 | – | > 100 | > 100
6 | Cc1cc2ncn(-c3nc4ccccc4nc3C(C#N)S(C)(=O)=O)c2cc1C (centres undefined) | > 100 | – | – | – | > 100 | –
7 | S=c1sc2c(s1)SC(c1ccccc1)CS2 (centres undefined) | > 100 | – | > 100 | > 100 | – | > 100
8 | CC1=C(c2nc3ccccc3s2)C(=O)OC1(C)C | > 100 | > 100 | – | – | > 100 | –
9 | CCCCCCCC/C=C1\CCC(CN(C)C)C1=O (centres undefined) | 19.8 | 17.9 | – | – | 12.8 | –
10 | O=S(O)CCCCCSSc1ccccc1 | – | – | – | – | 72.3 | –
11 | Cc1c(O)c(=O)ccn1CCN | > 100 | > 100 | – | – | – | –
12 | CN(C)CCNc1ccc2ncn3c4ccccc4c(=O)c1c23 | 13.6 | – | – | – | – | –
13 | N#C/C(=C\c1ccncc1)c1csc2ccccc12 | 54.6 | – | > 77.7 | 25.2 | 46.3 | 39.2
14 | O=NN1C(c2ccccc2)CNC(=O)CC1c1ccccc1 (centres undefined) | 63.5 | – | > 100 | 63.5 | – | 62.3
15 | COc1cc2c(c(OC)c1OC)-c1ccc(SC)c(=O)cc1[C@@H](NCc1ccc(F)cc1)CC2 | < 0.0075 | 52.4 | – | – | – | –
16 | CC1=CC2C(C=C1)S(=O)(=O)N1CC21c1ccccc1 (centres undefined) | > 100 | – | – | – | – | –
17 | O=C(Cc1ccccc1)NN1C(=O)C(Cl)C1c1ccccc1Cl (centres undefined) | > 100 | – | – | – | > 100 | –
18 | FC(F)(F)c1ccc2c(c1)N(CCCNCCN1CCOCC1)c1ccccc1S2 | 17 | – | – | – | 15.2 | –
